This passage reports TGI and GI50 results from PubChem BioAssay (NCI).

Where “and” joins values, the source holds several entries; their conditions need not be identical. Identical values can stand only once.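 The compound was tested at five concentrations on cells cultured in 96-well plates, with a 48-hour exposure period. GI50: concentration for 50% inhibition of growth. TGI marks complete inhibition of growth.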 Some results are limits rather than exact numbers.

What all share (assay): NCI tumour cell line growth inhibition, 48 h
Assay [1] relates to MDA-N.
The test system of assay [2] is XF 498 CNS.
In assay [3] the test system is SNB-78 CNS.
For assay [4], the system named is KM20L2 colon.
Assay [5] deals with RXF-631 renal.
The subject of assay [6] is DLD-1 colon.
In assay [7] the test system is HOP-18 NSCLC.
For assay [8], the system named is M19-MEL melanoma.
Assay [9] relates to P388/ADR leukemia.
Assay [10] concerns P388 leukemia.
Assay [11] concerns SN12K1 renal.

As to `NCCNCC(O)CO` (centres undefined), the TGI in assay [1] is > 100 µM.

For the compound `COc1cc(-c2oc3c(OC)c(OC)cc(O)c3c(=O)c2OC)ccc1O`, the TGI in [1] was > 50 µM; in assay [2], 16.1 µM; in assay [3], > 100 µM; in assay [4] it was > 100 µM; in [5] it was > 100 µM; in assay [6] it was > 100 µM.

For `COC(=O)c1ccc(=O)c2nc3/c(=C/O)c(O)cc(=O)c3[nH]c12`, the TGI in assay [1] stood at 24.6 µM.

Regarding `NC(=O)c1[nH]nc(C2OC(CO)C(O)C2O)c1O` (centres undefined), the TGI in [1] was 923 µM; in assay [7] it was 812 µM; in [8] it was > 3890 µM; in assay [2], 247 µM; in assay [3], 2820 µM; in assay [4], > 5000 µM. Further, the TGI in assay [9] was 241 µM; in assay [10], 802 µM; in [6], 447 µM; in assay [11] it was 663 µM.

On to `COC(=O)C1=C(C(=O)OC)C23C=CC=CC24C(C(=O)OC)=C(C(=O)OC)C4C1C3` (centres undefined), for which the TGI in assay [8], in assay [2], in assay [3], in [4] and in assay [6] was > 100 µM each time.

As for `Cc1c(O)c(=O)ccn1C1OC(CO)C(O)C1O` (centres undefined), the TGI in [8], in assay [2], in assay [3], in assay [4] and in assay [6] was > 100 µM in each case.

For `NC(=O)c1csc(C2C=CC(CO)O2)n1` (centres undefined), the TGI in assay [7], in assay [2], in assay [3], in assay [4] and in [5] was > 100 µM each time.

`CC1=C(C(=O)Nc2ccccc2C)C(c2ccc([N+](=O)[O-])cc2)C(C(=O)Nc2ccccc2C)=C(C)N1`: the TGI in assay [7], in [8], in assay [2], in assay [4], in [5] and in assay [6] was > 100 µM in each case.

Regarding `Cc1ccc(S(=O)(=O)CNC(=S)CCCC(=S)NCS(=O)(=O)c2ccc(C)cc2)cc1`, the TGI in [8], in assay [2], in [3], in [4], in assay [5] and in assay [6] was > 100 µM each time.

`CCCCn1c2c(c3ccccc3c1=O)C(=O)c1ccccc1-2`: the TGI in assay [1] is > 100 µM.

As to `Cc1ccc(S(=O)(=O)N2CCC3(C(/C=C/c4ccccc4)=Nc4ccccc43)C2c2ccccc2)cc1` (centres undefined), the TGI in assay [8], in assay [2], in [3], in assay [4] and in [6] was > 100 µM in each case.

As to `N/N=C1\c2ccccc2C2/C(=N\N)c3ccccc3C12` (centres undefined), the TGI in assay [7], in assay [8], in assay [4] and in assay [6] was > 100 µM throughout.

In the case of `Cc1cc(=O)oc2cc(OC(=O)Nc3ccc(Cl)c(Cl)c3)ccc12`, the TGI in assay [1] was 54.7 µM.

Take `C=CCNC1=C(C(=O)OCC)C(=O)CO1`: the TGI in assay [8], in assay [2], in assay [3], in assay [4], in assay [5] and in assay [6] was > 100 µM in each case.

As for `CC1CCCC(C(O)CC2CC(=O)N(c3ccccc3)C(=O)C2)C1=O` (centres undefined), the TGI in assay [7], in assay [8], in assay [3], in assay [4] and in assay [6] was > 100 µM throughout.

In the case of `CC(=O)NNc1nc(C)c(C(/C=C/c2ccc(Cl)cc2)=N\NS(=O)(=O)c2ccc(C)cc2)s1`, the TGI in [7], in assay [8], in assay [2], in assay [3], in assay [4] and in assay [5] was > 100 µM each time. Moreover, in [6], the TGI is > 100 µM.

For the compound `Cc1ccc(NC(=O)CC(=O)n2nc(-c3ccccc3)c(N=Nc3ccc(Cl)cc3)c2-c2ccccc2)cc1`, the TGI in assay [7] was > 100 µM; in assay [8], 60.4 µM; in assay [3], > 100 µM; in assay [4] it was > 100 µM; in assay [5] it was > 100 µM; in [6] it was 54.4 µM.

Take `CC(=O)OCC1OC(OC2CC3C(C)(C)C(OC(C)=O)CC[C@]3(C)C3CCC45CC4(CC[C@H]5C(C)CC(O)C4OC4(C)C)[C@]23C)C(O)C(O)C1O` (some centres undefined): the TGI in assay [7] was 8.91 µM and 5.96 µM; in assay [8], 6.5 µM and 6.19 µM; in assay [2], 3.64 µM and 3.81 µM; in assay [3] it was 13.3 µM and 16.2 µM; in [5], 9.55 µM; in assay [6], 4.4 µM and 4.77 µM. The GI50 in assay [8] was 2.35 µM; in assay [2], 1.26 µM; in [3] it was 3.96 µM; in [4], > 60 µM; in assay [6], 2.38 µM.

Take `O=C(O)c1cc2ccccc2c(N=Nc2c([N+](=O)[O-])cc([N+](=O)[O-])cc2S(=O)(=O)O)c1O`: in assay [1], the TGI was > 100 µM.

`Cc1cc(O)c2c(c1)C(=O)c1cc(O)cc(O)c1C2=O`: the TGI was 37 µM in [7]; 86.7 µM in assay [2]; > 100 µM in [3]; > 100 µM in assay [4]; > 100 µM in assay [5]; > 100 µM in assay [6].

With `CCCCCCCCCCCCCC/C(C(=O)OC)=C(/O)C(=O)OCC`, the TGI in assay [7] was 73.7 µM; in assay [8], > 100 µM; in assay [2], 53.8 µM; in assay [3], > 100 µM; in assay [5] it was 93.6 µM; in assay [6] it was > 100 µM.

For the compound `CO[C@H]1[C@H](O)[C@H](O[C@H]2CC[C@@]3(C)[C@H](CC[C@@H]4[C@@H]3CC[C@]3(C)[C@@H](C5=CC(=O)OC5)CC[C@]43O)C2)O[C@@H](C)[C@@H]1O`, the TGI in [1] was < 0.0001 µM; in assay [7], 0.00382 µM; in assay [8], 0.016 µM; in assay [4], 0.0118 µM; in assay [5] it was > 100 µM; in assay [6] it was 0.00767 µM. Besides, the GI50 in [5] was > 100 µM.

On to `C/C(=N\NC(=O)CC(=O)Nc1ccc(Cl)cc1)c1cc2ccccc2oc1=O`, for which the TGI in assay [7], in assay [8], in [2], in [4] and in assay [6] was > 100 µM throughout.

For the compound `CCc1cccc(C(C)C)c1NC(=O)C(=O)C(C(=O)C(=O)OC)c1nc2ccccc2[nH]c1=O` (centres undefined), the TGI in assay [7], in assay [8], in assay [2], in assay [3], in assay [4] and in [5] was > 100 µM each time.

Consider `CCC(=O)OC1CCn2c1nc1c2C(=O)C(C)=C(N2CC2)C1=O` (centres undefined), for which the TGI was determined as 0.181 µM in [1]; 0.228 µM in assay [7]; 0.345 µM in assay [8]; 0.0973 µM in [2]; 1.41 µM in [3]; 0.831 µM in assay [4]. This compound also registered a TGI in assay [6] of 1.58 µM.

Take `O=C(CC/C(C/C(=N/O)c1ccc(F)cc1)=N/O)N(Cc1ccccc1)Cc1ccccc1`: the TGI in [7], in assay [8], in assay [4] and in assay [6] was > 100 µM throughout.

In the case of `C=C(CN(CC(=C)C(=O)c1ccccc1)C(C)(C)C)C(=O)c1ccccc1`, the TGI in [7] was determined as 14.3 µM; in assay [8], 30 µM; in [2], 16 µM; in [3], 53.7 µM; in assay [4], 37.5 µM; in [6], 10.2 µM.

As for `FC(F)(F)c1ccc(C=NC23CC4CC(CC(C4)C2)C3)cc1`, the TGI in assay [3] and in assay [4] was > 100 µM throughout.

With `N#Cc1c[nH]n2ccnc12`, the TGI in assay [1] is > 100 µM.

As to `CC12O[C@H](c3ccccc3)[C@H](c3ccccc3)N1C(=O)C1(C(=O)OCc3ccccc3)CC12` (some centres undefined), the TGI in assay [8], in assay [2], in assay [4], in assay [5] and in assay [6] was > 100 µM throughout.

Consider `COC(=O)c1ccccc1NC(=O)C(=O)CC(=O)c1ccccc1NC1=CC(=O)C(=O)c2ccccc21`, for which the TGI in assay [1] was 3.18 µM; in assay [7], 29.6 µM; in assay [8] it was 4.49 µM; in assay [2] it was 30.9 µM; in [3] it was > 100 µM; in assay [4], > 100 µM. The TGI was > 80.8 µM in assay [5] and 30.4 µM in assay [6].

`O=C1C=CC(=O)C1(Br)Br` showed a TGI in assay [1] of 27.5 µM.

With `CC[C@@]1(O)C(=O)OCc2c1cc1n(c2=O)Cc2cc3cc(OC)ccc3nc2-1`, the TGI in assay [1] is 1.04 µM; in assay [8], 1.48 µM.

As for `Cn1cc2c(n1)c(N/N=C/c1ccccc1)nn1nnnc21`, the TGI in assay [7], in assay [8], in assay [2], in assay [3], in [4] and in assay [5] was > 100 µM each time. Besides, in assay [6], the TGI was > 100 µM.

`CN(C)c1ccc(/C=C2\CNC/C(=C\c3ccc(N(C)C)cc3)C2=O)cc1`: the TGI was 36.8 µM in assay [7]; 46.8 µM in assay [8]; 48.6 µM in [2]; > 100 µM in [3]; > 100 µM in [4]; 60.7 µM in assay [5]. Besides, the TGI in [6] came out at 46.2 µM.

On to `O=C(O)CCC1COc2ccccc2O1` (centres undefined), for which, in assay [1], the TGI was > 10 µM.

For the compound `COc1ccc(NC(=O)C(=O)NNC(=O)c2sc(NNC(C)=O)nc2C)c([N+](=O)[O-])c1`, the TGI in assay [8], in assay [2], in assay [3] and in assay [4] was > 100 µM in each case.

For the compound `C(CCc1nnc2c(n1)CCCC2)Cc1nnc2c(n1)CCCC2`, the TGI in assay [1] is > 100 µM.

For `Cc1cc(N(CCC#N)CCC#N)ccc1/C=C(\NC(=O)/C=C/c1ccccc1)NC(=O)Nc1ccc(Cl)cc1`, the TGI in [8], in [2] and in assay [6] was > 100 µM each time.

`CCOP(=O)(CC(=O)C1=C(O)C(CCCNC(=O)OC(C)(C)C)N(Cc2ccc(OC)c(OC)c2)C1=O)OCC` (centres undefined): the TGI in assay [7], in assay [8], in [4], in assay [5] and in [6] was > 100 µM each time.

Turning to `Cc1cc(Cc2cc(C)c(NC(=O)C(=O)C3C(=O)NC(=S)NC3=O)c(C(C)C)c2)cc(C(C)C)c1NC(=O)C(=O)C1C(=O)NC(=S)NC1=O`, the TGI in assay [7], in [8], in assay [3], in assay [4], in assay [5] and in [6] was > 100 µM each time.

Regarding `CC1C=C(OC(=O)c2ccccc2)C(=O)C(n2cc(F)c(=O)n(C(=O)c3ccccc3)c2=O)O1` (centres undefined), the TGI was > 100 µM in [7]; > 100 µM in [8]; 73.3 µM in assay [2]; > 100 µM in [3]; 81.9 µM in assay [4]; > 100 µM in assay [5]. In addition, the TGI in assay [6] is > 100 µM.
